Data published in paper PMC5778071, “Development of matrix metalloproteinase-targeted probes for lung inflammation detection with positron emission tomography” (Scientific Reports, 2018).
Several values for one entry are separate records, joined by “and”; a condition that tells them apart may be missing. Equal entries are not always repeated.

Assays:
recombinant human MMP-13 = target: T1, recombinant human MMP-13 (Homo sapiens, UniProt P45452); assay: Competitive fluorogenic enzyme activity assay, MMP-13; assay type: biochemical; details: fluorogenic substrate 5 μM, 5 nM enzyme, 30 min; read-out: IC50 toward MMP-13
T1 construct: purchased Anaspec AS72011
Protocol: (§1) Determination of the IC50 toward human MMP-2, MMP-9, MMP-12 and MMP-13 was performed by a competitive enzyme activity assay according to a literature procedure. The assay was performed by incubating 5 μM of the synthesized fluorogenic peptide substrate Mca-Pro-Leu-Gly-Leu-Dpa(Dnp)-Ala-Arg-NH2 with 5 nM recombinant human MMP-2 (AS72005, Anaspec Inc., CA, USA), MMP-9 (911-MP, R&D Systems, MN, USA), MMP-12 (917-MP, R&D Systems) and MMP-13 (AS72011, Anaspec) along with various concentrations of ML5, I-ML5, PFB, PFP, IPFB, and IPFP (0.2–365 nM) in a buffer (pH 7.5, 50 mM tris(hydroxymethyl)aminomethane, 10 mM calcium chloride, 150 mM sodium chloride, and 0.01% Brij-35) containing 5% dimethyl sulfoxide. The increase in fluorescence over time was measured using a SpectraMax M2e microplate reader (Molecular Devices Inc., CA, USA) with an excitation wavelength of 325 nm and an emission wavelength of 395 nm. The fluorescence intensity after 30 min was plotted as a function of the concentration of each of the compounds on a logarithmic scale to produce an inhibition curve that was subsequently fit with a sigmoidal function by a least squares method. The IC50 values were calculated from the inhibition curves using GraphPad Prism 6 (GraphPad Software, Inc., CA, USA).

recombinant human MMP-9 = target: T2, recombinant human MMP-9 (Homo sapiens, UniProt P14780); assay: Competitive fluorogenic enzyme activity assay, MMP-9; assay type: biochemical; details: fluorogenic substrate 5 μM, 5 nM enzyme, 30 min; read-out: IC50 toward MMP-9
T2 construct: purchased R&D Systems 911-MP
T2 sequence (P14780 94-707): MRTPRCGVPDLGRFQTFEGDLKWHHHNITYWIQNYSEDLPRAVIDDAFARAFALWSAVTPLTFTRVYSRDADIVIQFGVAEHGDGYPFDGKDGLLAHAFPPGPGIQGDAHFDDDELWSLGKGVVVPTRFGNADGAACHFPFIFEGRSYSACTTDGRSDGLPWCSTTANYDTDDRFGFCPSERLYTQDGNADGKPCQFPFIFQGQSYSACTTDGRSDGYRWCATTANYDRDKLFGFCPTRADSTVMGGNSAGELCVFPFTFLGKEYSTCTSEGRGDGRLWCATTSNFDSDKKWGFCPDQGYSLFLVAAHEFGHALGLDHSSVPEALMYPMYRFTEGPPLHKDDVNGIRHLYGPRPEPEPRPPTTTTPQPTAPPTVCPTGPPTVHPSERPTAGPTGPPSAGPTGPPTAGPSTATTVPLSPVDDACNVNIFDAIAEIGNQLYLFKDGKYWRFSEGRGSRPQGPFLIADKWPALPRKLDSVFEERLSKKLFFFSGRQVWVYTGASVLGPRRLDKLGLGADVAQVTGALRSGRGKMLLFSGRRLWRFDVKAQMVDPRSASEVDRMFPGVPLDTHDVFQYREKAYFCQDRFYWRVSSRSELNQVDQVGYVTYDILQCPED
Protocol: as §1

MMP-9 = tested on: MMP-9; parameters: method as in PMID 25438884; details: fluorogenic inhibition assay; cited from earlier work
recombinant human MMP-2 = target: T3, recombinant human MMP-2 (Homo sapiens, UniProt P08253); assay: Competitive fluorogenic enzyme activity assay, MMP-2; assay type: biochemical; details: fluorogenic substrate 5 μM, 5 nM enzyme, 30 min; read-out: IC50 toward MMP-2
T3 construct: purchased Anaspec Inc. AS72005
T3 sequence (P08253 110-660): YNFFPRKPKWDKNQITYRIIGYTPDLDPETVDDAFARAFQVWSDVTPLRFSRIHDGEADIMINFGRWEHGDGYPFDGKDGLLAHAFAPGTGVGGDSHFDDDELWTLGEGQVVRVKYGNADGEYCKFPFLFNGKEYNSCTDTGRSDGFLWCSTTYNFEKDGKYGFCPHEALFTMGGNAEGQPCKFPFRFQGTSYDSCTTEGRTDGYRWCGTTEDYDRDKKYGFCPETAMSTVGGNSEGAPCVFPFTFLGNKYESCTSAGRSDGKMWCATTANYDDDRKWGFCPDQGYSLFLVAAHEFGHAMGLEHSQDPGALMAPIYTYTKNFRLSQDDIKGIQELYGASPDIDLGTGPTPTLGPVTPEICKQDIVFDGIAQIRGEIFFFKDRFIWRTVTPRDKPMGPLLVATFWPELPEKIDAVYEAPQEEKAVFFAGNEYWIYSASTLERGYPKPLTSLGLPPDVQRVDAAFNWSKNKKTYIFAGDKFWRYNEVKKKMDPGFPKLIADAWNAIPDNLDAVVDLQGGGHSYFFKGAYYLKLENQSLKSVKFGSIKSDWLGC
Protocol: as §1

MMP-12 = tested on: MMP-12; parameters: method as in PMID 25438884; details: fluorogenic inhibition assay; cited from earlier work
recombinant human MMP-12 = target: T4, recombinant human MMP-12 (Homo sapiens, UniProt P39900); assay: Competitive fluorogenic enzyme activity assay, MMP-12; assay type: biochemical; details: fluorogenic substrate 5 μM, 5 nM enzyme, 30 min; read-out: IC50 toward MMP-12
T4 construct: purchased R&D Systems 917-MP
T4 sequence (P39900 106-470): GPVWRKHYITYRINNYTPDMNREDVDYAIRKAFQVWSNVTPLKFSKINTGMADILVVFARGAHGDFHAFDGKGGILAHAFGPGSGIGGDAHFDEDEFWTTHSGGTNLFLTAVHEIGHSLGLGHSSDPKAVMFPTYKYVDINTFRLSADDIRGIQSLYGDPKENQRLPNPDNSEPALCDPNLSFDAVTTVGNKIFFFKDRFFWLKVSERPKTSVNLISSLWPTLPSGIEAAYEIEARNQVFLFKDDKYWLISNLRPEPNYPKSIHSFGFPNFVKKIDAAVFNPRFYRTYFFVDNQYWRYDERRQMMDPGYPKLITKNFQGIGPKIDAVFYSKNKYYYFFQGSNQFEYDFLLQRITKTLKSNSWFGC
Protocol: Determination of the IC50 toward human MMP-2, MMP-9, MMP-12 and MMP-13 was performed by a competitive enzyme activity assay according to a literature procedure. […] The increase in fluorescence over time was measured using a SpectraMax M2e microplate reader (Molecular Devices Inc., CA, USA) with an excitation wavelength of 325 nm and an emission wavelength of 395 nm. The fluorescence intensity after 30 min was plotted as a function of the concentration of each of the compounds on a logarithmic scale to produce an inhibition curve that was subsequently fit with a sigmoidal function by a least squares method. The IC50 values were calculated from the inhibition curves using GraphPad Prism 6 (GraphPad Software, Inc., CA, USA).

[1] = In vivo biodistribution study in Air and CS (COPD model) mice; parameters: species or system BALB/c mice; details: for Tissue radioactivity, Blood / Tissue radioactivity, Bone / Tissue radioactivity, Heart / Tissue radioactivity, Intestine / Tissue radioactivity, Kidney / Tissue radioactivity, Liver / Tissue radioactivity, Lung / Tissue radioactivity, Muscle / Tissue radioactivity, Pancreas / Tissue radioactivity, Spleen / Tissue radioactivity, Stomach: i.v.
Protocol: The animals were randomly divided into two groups, control air-exposed (Air, n = 18) and cigarette smoke exposed (CS, n = 18) groups. The mice in the CS group were exposed to cigarette smoke for 10 min inside an acrylic box twice a day, 4–5 times a week, for 4 months using 1 cigarette (Peace, Japan Tobacco Inc., Tokyo, Japan) for every exposure following a previous report with slight modifications. The mice in the Air group were identically exposed to air without CS in a similar box. After the CS treatment, the animals were kept under normal warm and clean environmental conditions to allow for recovery and then housed as described above.
Animals from each study group were randomly divided into 3 groups (n = 3 each) for each time point studied. Mice that were intravenously administered ^18F-IPFP (185 kBq/100 μl saline containing 0.1% tween 80) were sacrificed by cervical dislocation at 20, 45, and 90 min, and 5, 45, and 90 min after administration for the Air and CS groups, respectively. Blood was immediately collected from the heart cavity. Tissues were excised, weighed, and counted for radioactivity with an NaI well-type scintillation counter (1470 Wizard; PerkinElmer, Kanagawa, Japan).

[2] = In vivo PET imaging of lung region; parameters: species or system BALB/c mice; details: 50–60 min after injection
Protocol: PET data were acquired in list mode using a microPET Focus120 apparatus (Siemens), with a spatial resolution of 1.2 mm at the center of the field of view[24]. Animals (n = 2 per group) were placed in a prone position under 1–2% isoflurane anesthesia on a heating pad to maintain body temperature at 36–37 °C during the PET experiments. A transmission […] scan using an external ^68Ge source was acquired before the PET scan for attenuation correction. At the start of the PET scan, intravenous administration of ^18F-IPFP (4.7–8.1 MBq/100 μl saline containing 0.1% tween 80) was initiated for 15 sec followed by a 50–100 μl saline flush for 15 sec. The scan duration was 60 min. Following the PET scan, mice were immediately euthanized with an anesthesia overdose, followed by extraction of the lungs and heart. Extracted organs were placed on the PET bed and scanned for another 10 min. Thereafter, the lungs were frozen for ex vivo autoradiography analysis. Emission images were reconstructed using Fourier rebinning[25] and a maximum likelihood expectation maximization algorithm with a 128 × 128 × 95 matrix size, and a 0.43 × 0.43 × 0.80 mm^3 voxel size. The uptake of the tracer in the regions of interest was converted to the standardized uptake values (SUVs).

[3] = Ex vivo autoradiography of lung sections; assay type: in vivo, BALB/c mice; details: after PET scan; for Radioactivity accumulation in lung sections (autoradiography): 20 μm sections
Protocol: Following the PET experiments, the frozen lungs were cut into 20 μm thick sections with a cryomicrotome (Cryotome FSE; ThermoFisher Scientific, Tokyo, Japan). Lung sections at intervals of 100 μm (n = 2 each, 9 positions) were exposed to imaging plates (BAS-SR; GE Healthcare Japan, Tokyo, Japan) for 3 h. To quantify the signals, various concentrations of the administrated ^18F-IPFP dilutions were also plotted and exposed to imaging plates. Autoradiograms were obtained with a Typhoon FLA 7000 scanner, (GE Healthcare Japan), and the resulting images were analyzed by ImageQuant TL (GE Healthcare Japan). Radioactivities per area were determined by image analysis of the resulting autoradiograms and expressed as percent injected dose (%ID) per section calculated using the quantitation curve obtained by the ^18F-IPFP dilutions.

[4] = Air group, 20 min after injection
[5] = Air group, 45 min after injection
[6] = Air group, 90 min after injection
[7] = CS group, 5 min after injection
[8] = CS group, 45 min after injection
[9] = CS group, 90 min after injection

## CC(C)C[C@H](CC(=O)NO)C(=O)N[C@@H](Cc1ccccc1)C(=O)N[C@@H](CCCCN)C(N)=O [ML5, reference compound]
Recombinant human MMP-13
  IC50: 22.4 ± 8.1 nM
Recombinant human MMP-9
  IC50: 37.9 ± 5.2 nM
MMP-9
  IC50: 19.5 nM
Recombinant human MMP-2
  IC50: 9.6 ± 4.7 nM
MMP-12
  IC50: 2 nM
Recombinant human MMP-12
  IC50: 2.8 ± 0.4 nM

## CC(C)C[C@H](CC(=O)NO)C(=O)N[C@@H](Cc1ccccc1)C(=O)N[C@@H](CCCCNC(=O)c1ccc(F)cc1)C(N)=O [^18F-FB-ML5]
MMP-9
  IC50: 31.5 nM
MMP-12
  IC50: 138 nM

## CC(C)C[C@H](CC(=O)NO)C(=O)N[C@@H](Cc1ccc(I)cc1)C(=O)N[C@@H](CCCCNC(=O)C(C)[18F])C(N)=O (stereo partly drawn) [^18F-IPFP]
[1]; 90 min after administration
  Radioactivity accumulation in the lungs, CS group compared with Air group: > 4 fold and 4 fold
[1]; [4]
  Tissue radioactivity, Blood: 0.5 ± 0.1 %ID/g
  Tissue radioactivity, Bone: 0.4 ± 0.0 %ID/g
  Tissue radioactivity, Heart: 0.5 ± 0.1 %ID/g
  Tissue radioactivity, Intestine: 10.7 ± 2.2 %ID/g
  Tissue radioactivity, Kidney: 37.6 ± 6.4 %ID/g
  Tissue radioactivity, Liver: 22.6 ± 0.7 %ID/g
  Tissue radioactivity, Lung: 5.3 ± 0.6 %ID/g
  Tissue radioactivity, Muscle: 0.3 ± 0.1 %ID/g
  Tissue radioactivity, Pancreas: 5.4 ± 0.7 %ID/g
  Tissue radioactivity, Spleen: 0.9 ± 0.1 %ID/g
  Tissue radioactivity, Stomach: 2.8 ± 2.1 % injected dose
[1]; [5]
  Tissue radioactivity, Blood: 0.6 ± 0.0 %ID/g
  Tissue radioactivity, Bone: 0.5 ± 0.1 %ID/g
  Tissue radioactivity, Heart: 0.5 ± 0.0 %ID/g
  Tissue radioactivity, Intestine: 16.9 ± 3.0 %ID/g
  Tissue radioactivity, Kidney: 38.8 ± 4.2 %ID/g
  Tissue radioactivity, Liver: 15.2 ± 1.6 %ID/g
  Tissue radioactivity, Lung: 2.4 ± 0.4 %ID/g
  Tissue radioactivity, Muscle: 0.3 ± 0.2 %ID/g
  Tissue radioactivity, Pancreas: 4.5 ± 0.8 %ID/g
  Tissue radioactivity, Spleen: 0.8 ± 0.1 %ID/g
  Tissue radioactivity, Stomach: 1.5 ± 1.0 % injected dose
[1]; [6]
  Tissue radioactivity, Blood: 0.7 ± 0.1 %ID/g
  Tissue radioactivity, Bone: 0.7 ± 0.2 %ID/g
  Tissue radioactivity, Heart: 0.5 ± 0.1 %ID/g
  Tissue radioactivity, Intestine: 18.4 ± 2.1 %ID/g
  Tissue radioactivity, Kidney: 34.6 ± 3.3 %ID/g
  Tissue radioactivity, Liver: 11.2 ± 1.1 %ID/g
  Tissue radioactivity, Lung: 1.3 ± 0.1 %ID/g
  Tissue radioactivity, Muscle: 0.4 ± 0.1 %ID/g
  Tissue radioactivity, Pancreas: 3.9 ± 0.6 %ID/g
  Tissue radioactivity, Spleen: 0.8 ± 0.2 %ID/g
  Tissue radioactivity, Stomach: 0.5 ± 0.2 % injected dose
[1]; COPD mice, 90 min after administration
  Radioactivity accumulation in the lungs relative to heart, muscle and blood: 10 fold
[1]; [7]
  Tissue radioactivity, Blood: 0.8 ± 0.1 %ID/g
  Tissue radioactivity, Bone: 1.0 ± 0.3 %ID/g
  Tissue radioactivity, Heart: 0.9 ± 0.3 %ID/g
  Tissue radioactivity, Intestine: 6.0 ± 0.6 %ID/g
  Tissue radioactivity, Kidney: 34.1 ± 3.6 %ID/g
  Tissue radioactivity, Liver: 30.8 ± 4.6 %ID/g
  Tissue radioactivity, Lung: 9.4 ± 1.9 %ID/g
  Tissue radioactivity, Muscle: 0.6 ± 0.1 %ID/g
  Tissue radioactivity, Pancreas: 6.2 ± 0.3 %ID/g
  Tissue radioactivity, Spleen: 2.5 ± 0.4 %ID/g
  Tissue radioactivity, Stomach: 1.0 ± 0.4 % injected dose
[1]; [8]
  Radioactivity accumulation in the lungs relative to surrounding tissues (heart, blood, muscle): > 10 fold
  Tissue radioactivity, Blood: 0.5 ± 0.1 %ID/g
  Tissue radioactivity, Bone: 0.6 ± 0.1 %ID/g
  Tissue radioactivity, Heart: 0.5 ± 0.1 %ID/g
  Tissue radioactivity, Intestine: 13.1 ± 0.3 %ID/g
  Tissue radioactivity, Kidney: 31.7 ± 2.2 %ID/g
  Tissue radioactivity, Liver: 17.4 ± 4.1 %ID/g
  Tissue radioactivity, Lung: 5.6 ± 0.5 %ID/g
  Tissue radioactivity, Muscle: 0.3 ± 0.1 %ID/g
  Tissue radioactivity, Pancreas: 4.8 ± 0.6 %ID/g
  Tissue radioactivity, Spleen: 1.2 ± 0.2 %ID/g
  Tissue radioactivity, Stomach: 2.2 ± 0.2 % injected dose
[1]; [9]
  Tissue radioactivity, Blood: 0.6 ± 0.1 %ID/g
  Tissue radioactivity, Bone: 0.8 ± 0.2 %ID/g
  Tissue radioactivity, Heart: 0.6 ± 0.1 %ID/g
  Tissue radioactivity, Intestine: 15.7 ± 0.9 %ID/g
  Tissue radioactivity, Kidney: 25.4 ± 5.2 %ID/g
  Tissue radioactivity, Liver: 12.0 ± 1.0 %ID/g
  Tissue radioactivity, Lung: 6.3 ± 0.3 %ID/g
  Tissue radioactivity, Muscle: 0.3 ± 0.1 %ID/g
  Tissue radioactivity, Pancreas: 3.9 ± 0.4 %ID/g
  Tissue radioactivity, Spleen: 1.3 ± 0.2 %ID/g
  Tissue radioactivity, Stomach: 1.4 ± 0.5 % injected dose
[1]; mouse, in vivo
  accumulation ratio of lung to liver: > 0.5
[1]; over the time window, suggests absence of defluorination
  Radioactivity uptake in the bone: low
[2]; Air group
  SUV in the lung regions (PET): 0.17
[2]; CS group
  SUV in the lung regions (PET): 0.22
[3]; Air group
  Radioactivity accumulation in lung sections (autoradiography): 16.2 ± 2.0 × 10^−4 %ID/section
[3]; CS group
  Radioactivity accumulation in lung sections (autoradiography): 30.0 ± 3.0 × 10^−4 %ID/section
[3]
  Radioactivity accumulation in lung sections, CS group vs Air group (autoradiography): 2 fold
